Active and inactive are the calls of the source.
How the values were obtained:
[1] = biological target: Glyceraldehyde-3-phosphate dehydrogenase (Homo sapiens, UniProt P04406)
Bcl-2-related protein A1 [2] = biological target: T1, Bcl-2-related protein A1 (Mus musculus, UniProt Q07440); experiment: small-molecule antagonists of Bfl-1/BH3 interaction – biochemical, TR-FRET, mouse Bfl-1, confirmation (AID 621);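 also: TR-FRET binding of GST-Bfl-1 to FITC-labelled Bid peptide via terbium antibody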
T1 sequence (Q07440 whole entry): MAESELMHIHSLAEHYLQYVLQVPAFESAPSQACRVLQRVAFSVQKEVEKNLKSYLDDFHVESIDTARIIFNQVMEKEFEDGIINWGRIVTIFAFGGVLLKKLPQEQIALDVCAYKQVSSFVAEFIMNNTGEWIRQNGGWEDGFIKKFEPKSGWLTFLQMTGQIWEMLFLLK

Bcl-2-related protein A1 [3] = biological target: T1, Bcl-2-related protein A1; experiment: Bfl-1 binding inhibitors, SAR follow-up, biochemical, fluorescence polarization (AID 1070)
Cytochrome P450 3A4 = Cytochrome P450 3A4 (Homo sapiens, UniProt P08684); conditions: Potency;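 also: confirmatory qHTS run detecting inhibitors and substrates of CYP3A4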
Chain of Cytochrome P450 3A4 (P08684 whole entry): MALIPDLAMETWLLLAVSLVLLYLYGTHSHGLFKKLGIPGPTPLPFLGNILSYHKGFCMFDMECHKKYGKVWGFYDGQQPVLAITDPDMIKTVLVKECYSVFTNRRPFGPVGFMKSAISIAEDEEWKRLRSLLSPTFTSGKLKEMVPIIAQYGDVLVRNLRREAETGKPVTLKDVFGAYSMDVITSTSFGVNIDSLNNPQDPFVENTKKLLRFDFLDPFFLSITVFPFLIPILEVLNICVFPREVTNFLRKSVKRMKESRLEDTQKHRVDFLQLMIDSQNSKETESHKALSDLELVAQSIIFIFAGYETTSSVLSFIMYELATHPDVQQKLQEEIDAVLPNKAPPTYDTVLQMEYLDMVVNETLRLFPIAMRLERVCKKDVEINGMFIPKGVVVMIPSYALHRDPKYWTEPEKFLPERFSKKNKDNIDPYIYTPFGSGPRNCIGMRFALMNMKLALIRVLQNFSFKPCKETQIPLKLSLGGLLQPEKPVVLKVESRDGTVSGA

Protein Tat = biological target: T2, Protein Tat (Human immunodeficiency virus type 1 group M subtype B (isolate HXB2)(HIV-1), UniProt P04608); type: functional;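 also: tat binding to TAR RNA read out by fluorescence polarization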
T2 sequence (P04608 whole entry): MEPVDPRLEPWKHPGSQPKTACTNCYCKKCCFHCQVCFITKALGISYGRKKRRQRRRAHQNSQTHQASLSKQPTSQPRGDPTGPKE

[4] = viability loss in HepG2 hepatoma cells – cell-based, ATP luminescence, cherry-pick, activator set 2, cytotoxicity control, dose response (AID 1053143); type: functional
[5] = biological target: Peroxisome proliferator-activated receptor gamma/Nuclear receptor coactivator 2 (Homo sapiens, UniProt P37231); type: functional;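 also: agonist potency for raising coactivator recruitment to the receptor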
[6] = biological target: Peroxisome proliferator-activated receptor gamma/Nuclear receptor coactivator 1 (Homo sapiens, UniProt P37231); type: functional;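 also: agonist potency as compounds enhance coactivator SRC-1 recruitment to PPARgamma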
Chain of Peroxisome proliferator-activated receptor gamma/Nuclear receptor coactivator 1 (P37231 whole entry): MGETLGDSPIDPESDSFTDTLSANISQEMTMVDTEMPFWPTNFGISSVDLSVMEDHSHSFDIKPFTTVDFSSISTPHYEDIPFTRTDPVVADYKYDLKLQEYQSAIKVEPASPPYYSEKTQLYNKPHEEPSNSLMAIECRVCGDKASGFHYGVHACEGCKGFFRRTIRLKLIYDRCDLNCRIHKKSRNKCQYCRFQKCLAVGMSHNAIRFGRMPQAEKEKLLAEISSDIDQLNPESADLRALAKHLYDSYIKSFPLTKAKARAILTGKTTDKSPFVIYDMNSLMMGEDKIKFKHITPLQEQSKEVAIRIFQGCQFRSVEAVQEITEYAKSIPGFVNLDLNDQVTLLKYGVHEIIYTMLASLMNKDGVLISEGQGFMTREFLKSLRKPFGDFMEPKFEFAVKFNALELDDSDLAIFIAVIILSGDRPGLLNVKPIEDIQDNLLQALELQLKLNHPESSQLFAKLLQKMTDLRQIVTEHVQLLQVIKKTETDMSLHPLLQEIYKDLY
Chain of Peroxisome proliferator-activated receptor gamma/Nuclear receptor coactivator 1 (Q15788 whole entry, further chain): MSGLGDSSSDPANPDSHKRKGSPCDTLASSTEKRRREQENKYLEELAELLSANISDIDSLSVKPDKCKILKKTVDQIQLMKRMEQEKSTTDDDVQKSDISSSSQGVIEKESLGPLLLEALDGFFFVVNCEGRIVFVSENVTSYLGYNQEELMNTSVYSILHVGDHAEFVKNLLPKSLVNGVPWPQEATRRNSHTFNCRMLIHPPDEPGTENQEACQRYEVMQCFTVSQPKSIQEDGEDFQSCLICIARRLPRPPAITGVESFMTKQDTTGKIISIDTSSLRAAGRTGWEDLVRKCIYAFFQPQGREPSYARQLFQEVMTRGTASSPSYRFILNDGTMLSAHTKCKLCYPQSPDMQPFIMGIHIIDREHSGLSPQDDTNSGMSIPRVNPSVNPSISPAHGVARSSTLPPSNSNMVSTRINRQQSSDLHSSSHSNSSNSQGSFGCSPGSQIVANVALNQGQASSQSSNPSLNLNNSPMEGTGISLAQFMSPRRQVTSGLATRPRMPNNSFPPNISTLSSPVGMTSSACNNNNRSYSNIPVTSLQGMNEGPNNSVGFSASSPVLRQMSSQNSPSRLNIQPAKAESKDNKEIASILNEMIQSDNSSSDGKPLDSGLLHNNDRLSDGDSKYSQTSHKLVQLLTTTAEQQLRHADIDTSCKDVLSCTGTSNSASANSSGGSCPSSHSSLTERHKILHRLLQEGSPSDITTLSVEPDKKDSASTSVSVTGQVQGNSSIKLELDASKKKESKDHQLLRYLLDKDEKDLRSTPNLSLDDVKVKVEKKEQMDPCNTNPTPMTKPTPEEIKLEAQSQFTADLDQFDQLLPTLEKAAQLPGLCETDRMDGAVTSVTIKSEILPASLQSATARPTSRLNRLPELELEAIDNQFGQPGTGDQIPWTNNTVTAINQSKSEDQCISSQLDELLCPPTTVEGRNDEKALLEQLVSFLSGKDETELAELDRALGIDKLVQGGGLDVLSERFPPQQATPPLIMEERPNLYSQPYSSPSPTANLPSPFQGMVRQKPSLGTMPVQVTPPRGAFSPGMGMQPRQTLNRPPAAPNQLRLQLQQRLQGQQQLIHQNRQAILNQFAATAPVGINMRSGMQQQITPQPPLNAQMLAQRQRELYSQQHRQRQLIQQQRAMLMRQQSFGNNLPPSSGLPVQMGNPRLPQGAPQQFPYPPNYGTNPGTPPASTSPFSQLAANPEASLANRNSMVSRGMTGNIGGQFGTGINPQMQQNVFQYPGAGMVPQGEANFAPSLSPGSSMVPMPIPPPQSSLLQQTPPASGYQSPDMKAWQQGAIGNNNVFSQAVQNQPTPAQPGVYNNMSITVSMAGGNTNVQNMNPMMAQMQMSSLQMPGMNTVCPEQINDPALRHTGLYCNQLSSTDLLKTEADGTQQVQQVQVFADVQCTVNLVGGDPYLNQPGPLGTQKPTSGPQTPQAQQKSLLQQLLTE

[7] = biological target: Peroxisome proliferator-activated receptor gamma/Nuclear receptor coactivator 3 (Homo sapiens, UniProt P37231); type: functional;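 also: agonist potency for raising coactivator recruitment to the receptor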
Chain of Peroxisome proliferator-activated receptor gamma/Nuclear receptor coactivator 3 (P37231 whole entry): as the sequence (P37231 whole entry) above
Chain of Peroxisome proliferator-activated receptor gamma/Nuclear receptor coactivator 3 (Q9Y6Q9 whole entry, further chain): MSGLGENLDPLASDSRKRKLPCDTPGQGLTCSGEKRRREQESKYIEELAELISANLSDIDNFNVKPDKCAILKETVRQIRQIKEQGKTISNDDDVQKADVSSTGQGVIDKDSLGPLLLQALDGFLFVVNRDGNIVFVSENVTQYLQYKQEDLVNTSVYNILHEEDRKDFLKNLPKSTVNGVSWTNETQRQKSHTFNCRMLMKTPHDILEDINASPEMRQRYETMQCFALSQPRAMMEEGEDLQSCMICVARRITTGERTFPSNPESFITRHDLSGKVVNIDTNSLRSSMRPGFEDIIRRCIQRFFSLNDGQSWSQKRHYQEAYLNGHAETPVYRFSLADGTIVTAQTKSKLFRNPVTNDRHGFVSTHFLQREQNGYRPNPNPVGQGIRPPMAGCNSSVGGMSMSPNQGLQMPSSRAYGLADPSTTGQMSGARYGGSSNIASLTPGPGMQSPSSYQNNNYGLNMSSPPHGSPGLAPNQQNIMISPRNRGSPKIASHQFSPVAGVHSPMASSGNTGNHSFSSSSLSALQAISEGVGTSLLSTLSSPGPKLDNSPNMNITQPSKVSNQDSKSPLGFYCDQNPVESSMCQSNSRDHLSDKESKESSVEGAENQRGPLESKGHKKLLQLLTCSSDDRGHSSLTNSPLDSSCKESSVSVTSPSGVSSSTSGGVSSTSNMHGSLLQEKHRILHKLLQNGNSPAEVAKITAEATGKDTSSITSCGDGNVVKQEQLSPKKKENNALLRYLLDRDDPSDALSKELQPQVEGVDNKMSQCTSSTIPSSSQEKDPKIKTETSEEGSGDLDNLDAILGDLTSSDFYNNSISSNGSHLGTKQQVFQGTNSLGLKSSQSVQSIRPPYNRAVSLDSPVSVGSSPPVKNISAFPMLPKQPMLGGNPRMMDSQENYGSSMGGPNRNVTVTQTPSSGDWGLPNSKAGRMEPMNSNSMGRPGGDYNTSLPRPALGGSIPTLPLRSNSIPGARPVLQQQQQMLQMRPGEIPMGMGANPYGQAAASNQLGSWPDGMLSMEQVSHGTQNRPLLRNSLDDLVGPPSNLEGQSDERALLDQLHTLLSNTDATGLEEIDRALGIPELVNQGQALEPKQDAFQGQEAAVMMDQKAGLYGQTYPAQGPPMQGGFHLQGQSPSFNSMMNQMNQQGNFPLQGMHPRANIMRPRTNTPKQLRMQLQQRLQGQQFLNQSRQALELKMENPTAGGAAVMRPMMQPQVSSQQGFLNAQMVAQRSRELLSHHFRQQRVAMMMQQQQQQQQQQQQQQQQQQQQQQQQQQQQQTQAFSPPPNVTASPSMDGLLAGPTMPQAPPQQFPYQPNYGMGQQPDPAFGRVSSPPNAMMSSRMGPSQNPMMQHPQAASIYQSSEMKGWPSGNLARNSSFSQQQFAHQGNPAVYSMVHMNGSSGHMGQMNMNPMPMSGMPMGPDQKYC

Chain of Glyceraldehyde-3-phosphate dehydrogenase (P04406 whole entry): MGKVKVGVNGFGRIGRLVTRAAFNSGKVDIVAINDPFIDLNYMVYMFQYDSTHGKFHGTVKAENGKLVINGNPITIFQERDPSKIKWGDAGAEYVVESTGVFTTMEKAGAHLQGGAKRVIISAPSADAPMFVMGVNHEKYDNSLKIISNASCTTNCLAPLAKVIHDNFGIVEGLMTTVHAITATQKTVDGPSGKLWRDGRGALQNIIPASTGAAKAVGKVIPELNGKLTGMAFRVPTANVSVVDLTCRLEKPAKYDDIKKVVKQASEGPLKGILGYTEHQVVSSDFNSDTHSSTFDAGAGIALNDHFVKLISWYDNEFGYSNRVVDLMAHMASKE

O=C1C(Cl)=C(N2CCN(c3ccc(Cl)cc3)CC2)C(=O)N1c1ccc(Cl)c(Cl)c1
IC50 [1]: > 100 µM (not active) | IC50 (Bcl-2-related protein A1 [2]): > 100 µM (not active) | IC50 (Bcl-2-related protein A1 [3]): > 100 µM (not active)

O=C1C(Cl)=C(N2CCN(CCOCCO)CC2)C(=O)N1c1ccc([N+](=O)[O-])cc1
IC50 [1]: > 100 µM (not active) | IC50 (Bcl-2-related protein A1 [2]): 3.51 µM (active) | IC50 (Bcl-2-related protein A1 [3]): 2.59 µM (active)

NC(=O)CNCCC(c1ccccc1)c1ccccc1
AC50 (Cytochrome P450 3A4): 15.8 µM (inconclusive)

COc1ccc(/N=C2/S/C(=C\c3ccc(C)o3)C(=O)N2CC(C)C)cc1
IC50 (Protein Tat): > 100 µM (active)

Cc1csc(NC(=O)c2sccc2C)n1
AC50 [4]: 26 µM (active)

CCOC(=O)c1s/c(=N\C(=O)c2ccc(OC)c(OC)c2)n(C)c1C
EC50 [5]: 12.2 µM (not active) | EC50 [6]: 8.1 µM (active) | EC50 [7]: 11.4 µM (not active)

Cc1nc(NC2CCCCC2)c2nc(-c3ccccc3)n(CCN3CCCC3)c2n1
AC50 (Cytochrome P450 3A4): 25.1 µM (inconclusive)

Clc1ccc(-n2nnc(-c3cccnc3Cl)n2)cc1Cl
IC50 (Bcl-2-related protein A1 [2]): > 100 µM (not active) | IC50 (Bcl-2-related protein A1 [3]): > 100 µM (not active)

O=C1C(Cl)=C(Cl)C(=O)N1c1c(Cl)cccc1Cl
IC50 [1]: > 100 µM (not active) | IC50 (Bcl-2-related protein A1 [2]): 30 µM (active) | IC50 (Bcl-2-related protein A1 [3]): > 100 µM (not active)

COCOC1CCC2C3CCC4=CC(=O)CCC4=C3C=CC12C (stereo not given)
IC50 (Protein Tat): > 100 µM (active)

COc1cc2c3c(c1OC)C1(C=CC(=O)C=C1)CC3N(C(=O)CCC(=O)O)CC2 (stereo not given)
IC50 (Protein Tat): > 100 µM (active)

From ChEMBL document CHEMBL1201862, “PubChem BioAssay data set” (2004)
